Test results as given in the supplement of paper PMC10307832.

Tests used:
Assay in all cases: relative viability (nuclei count vs DMSO), 5 days (fraction); higher = more cells survive
XMD8-85 + OSI-027 = compound: CN1CCN(CC1)C2=CC(=C(C=C2)NC3=NC=C4C(=N3)N(C5=CC=CC=C5C(=O)N4C)C)OC [XMD8-85] + COc1cccc2cc(-c3nc([C@H]4CC[C@H](C(=O)O)CC4)n4ncnc(N)c34)[nH]c12 [OSI-027] (partner 0.5 µM)
Summary of the method: (§1)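 Nuclei were stained with Hoechst during a one-step fixation (final 0.05% Triton X-100, 1% formaldehyde, 1 ug/ml Hoechst) carried out 5 days after dosing, then counted on 4× images. The cells, lung cancer lines in 1536-well plates, had been dosed by pin tool the day after seeding with one drug alone or a fixed anchor-drug dose plus five library-drug doses (not always all listed) in √10 steps. Relative viability is the nuclei count in treated wells divided by that in vehicle wells, and each value is the median of duplicate plates.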

4EGI-1 + Trametinib = compound: O=C(O)C(Cc1ccccc1[N+](=O)[O-])=NNc1nc(-c2ccc(Cl)c(Cl)c2)cs1 (mixture of isomers) [4EGI-1] + CC(=O)Nc1cccc(-n2c(=O)n(C3CC3)c(=O)c3c(Nc4ccc(I)cc4F)n(C)c(=O)c(C)c32)c1 [Trametinib] (partner 0.02 µM)
Summary of the method: as §1

XMD8-85 + Lapatinib = compound: CN1CCN(CC1)C2=CC(=C(C=C2)NC3=NC=C4C(=N3)N(C5=CC=CC=C5C(=O)N4C)C)OC [XMD8-85] + CS(=O)(=O)CCNCc1ccc(-c2ccc3ncnc(Nc4ccc(OCc5cccc(F)c5)c(Cl)c4)c3c2)o1 [Lapatinib] (partner 2 µM)
Summary of the method: as §1

4EGI-1 + Dasatinib = compound: O=C(O)C(Cc1ccccc1[N+](=O)[O-])=NNc1nc(-c2ccc(Cl)c(Cl)c2)cs1 (mixture of isomers) [4EGI-1] + Cc1nc(Nc2ncc(C(=O)Nc3c(C)cccc3Cl)s2)cc(N2CCN(CCO)CC2)n1 [Dasatinib] (partner 0.075 µM)
Summary of the method: as §1

NCI-H1792 showed a relative viability (XMD8-85 + OSI-027; first compound 0.253 µM) of 0.856, a relative viability (XMD8-85 + OSI-027; first compound 2.53 µM) of 0.981 and a relative viability (XMD8-85 + OSI-027; first compound 8 µM) of 0.896. It also gave a relative viability (4EGI-1 + Trametinib; first compound 0.5 µM) of 0.524, a relative viability (4EGI-1 + Trametinib; first compound 1.581 µM) of 0.428 and a relative viability (4EGI-1 + Trametinib; first compound 5 µM) of 0.359. The relative viability (4EGI-1 + Trametinib; first compound 15.81 µM) was 0.479, the relative viability (4EGI-1 + Trametinib; first compound 50 µM) was 0.366 and the relative viability (XMD8-85 + Lapatinib; first compound 0.08 µM) was 0.893. For the same cell line, the relative viability (XMD8-85 + Lapatinib; first compound 0.253 µM) was 0.63, the relative viability (XMD8-85 + Lapatinib; first compound 2.53 µM) was 0.675 and the relative viability (XMD8-85 + Lapatinib; first compound 8 µM) was 0.879. For the same cell line, the relative viability (4EGI-1 + Dasatinib; first compound 0.5 µM) was 1.03, the relative viability (4EGI-1 + Dasatinib; first compound 1.581 µM) was 0.797 and the relative viability (4EGI-1 + Dasatinib; first compound 5 µM) was 0.74. The relative viability (4EGI-1 + Dasatinib; first compound 15.81 µM) was 0.712 and the relative viability (4EGI-1 + Dasatinib; first compound 50 µM) was 0.671.
